ChEMBL document CHEMBL1157672, “Detection of multiple network-based allosteric interactions between peptides and arrays of DNA binding sites” (Bioorg Med Chem, 2010)
Calls of active or inactive are those of the source. The rule behind the calls is not given here.

How the values were obtained:
Format in all cases: nucleic-acid assay
[1] = test system: Nucleic Acid; experiment: Binding affinity to 5'-TTT-3' sequence of Escherichia coli 135-mer duplex pBR322 fragment at 12 nM after 60 mins by DNase I footprinting
[2] = test system: Nucleic Acid; experiment: Binding affinity to d(AAAA)-d(TTTT) sequence of Escherichia coli 158-mer duplex pBR322 fragment assessed as allosteric interaction after 60 mins by DNase I footprinting
[3] = test system: Nucleic Acid; experiment: Binding affinity to 5'-TTTCTCC-3' sequence of Escherichia coli 135-mer duplex pBR322 fragment after 60 mins by DNase I footprinting
[4] = test system: Nucleic Acid; experiment: Binding affinity to 5'-AGAAAATACCG-3' sequence of Escherichia coli 158-mer duplex pBR322 fragment at 1 to 3000 nM after 60 mins by DNase I footprinting
[5] = test system: Nucleic Acid; experiment: Binding affinity to 5'-AGAAAATACCG-3' sequence of Escherichia coli 158-mer duplex pBR322 fragment after 60 mins by DNase I footprinting
[6] = test system: Nucleic Acid; experiment: Binding affinity to d(AAA)-d(TTT) sequence of Escherichia coli 135-mer duplex pBR322 fragment assessed as allosteric interaction after 60 mins by DNase I footprinting
[7] = test system: Nucleic Acid; experiment: Binding affinity to 5'-AATACCG-3' sequence of Escherichia coli 158-mer duplex pBR322 fragment at 1 to 3000 nM after 60 mins by DNase I footprinting
[8] = test system: Nucleic Acid; experiment: Binding affinity to 5'-TTTCTCC-3' sequence of Escherichia coli 135-mer duplex pBR322 fragment at 1 to 3000 nM after 60 mins by DNase I footprinting
[9] = test system: Nucleic Acid; experiment: Binding affinity to 5'-TTT-3' sequence of Escherichia coli 135-mer duplex pBR322 fragment after 60 mins by DNase I footprinting
[10] = test system: Nucleic Acid; experiment: Binding affinity to 5'-AATACCG-3' sequence of Escherichia coli 158-mer duplex pBR322 fragment after 60 mins by DNase I footprinting
[11] = test system: Nucleic Acid; experiment: Binding affinity to 5'-GAAAATA-3' sequence of Escherichia coli 158-mer duplex pBR322 fragment after 60 mins by DNase I footprinting
[12] = test system: Nucleic Acid; experiment: Binding affinity to 5'-TTTTCTCCT-3' sequence of Escherichia coli 135-mer duplex pBR322 fragment after 60 mins by DNase I footprinting
[13] = test system: Nucleic Acid; experiment: Binding affinity to 5'-TT-3' sequence of Escherichia coli 135-mer duplex pBR322 fragment at 1 to 3000 nM after 60 mins by DNase I footprinting
[14] = test system: Nucleic Acid; experiment: Binding affinity to 5'-AATACC-3' sequence of Escherichia coli 158-mer duplex pBR322 fragment at 1 to 3000 nM after 60 mins by DNase I footprinting
[15] = test system: Nucleic Acid; experiment: Binding affinity to 5'-TT-3' sequence of Escherichia coli 135-mer duplex pBR322 fragment at 50 to 2000 nM after 60 mins by DNase I footprinting
[16] = test system: Nucleic Acid; experiment: Binding affinity to 11-mer duplex 3A-3T DNA at 0.2 to 7 uM after 60 mins by circular dichroism spectroscopy
[17] = test system: Nucleic Acid; experiment: Binding affinity to 11-mer duplex 3A-3T DNA minor groove at peptide to duplex ratio of 2:1 after 60 mins by circular dichroism spectroscopy
[18] = test system: Nucleic Acid; experiment: Binding affinity to 5'-AATACC-3' sequence of Escherichia coli 158-mer duplex pBR322 fragment after 60 mins by DNase I footprinting
[19] = test system: Nucleic Acid; experiment: Binding affinity to 11-mer duplex 4A-4T DNA minor groove at peptide to duplex ratio of 2:1 after 60 mins by circular dichroism spectroscopy
[20] = test system: Nucleic Acid; experiment: Binding affinity to 5'-TTTTCTC-3' sequence of Escherichia coli 81-mer duplex pBR322 fragment after 60 mins by DNase I footprinting
[21] = test system: Nucleic Acid; experiment: Binding affinity to 5'-AAAAT-3' sequence of Escherichia coli 81-mer duplex pBR322 fragment after 60 mins by DNase I footprinting
[22] = test system: Nucleic Acid; experiment: Binding affinity to 11-mer duplex 4A-4T DNA at 0.2 uM after 60 mins by circular dichroism spectroscopy
[23] = test system: Nucleic Acid; experiment: Binding affinity to 5'-GAAAATA-3' sequence of Escherichia coli 158-mer duplex pBR322 fragment at 1 to 3000 nM after 60 mins by DNase I footprinting
[24] = test system: Nucleic Acid; experiment: Binding affinity to 11-mer duplex 4A-4T DNA after 60 mins by circular dichroism spectroscopy
[25] = test system: Nucleic Acid; experiment: Binding affinity to 5'-TTTTCTCCT-3' sequence of Escherichia coli 135-mer duplex pBR322 fragment at 1 to 3000 nM after 60 mins by DNase I footprinting
[26] = test system: Nucleic Acid; experiment: Binding affinity to 5'-TT-3' sequence of Escherichia coli 135-mer duplex pBR322 fragment after 60 mins by DNase I footprinting
[27] = test system: Nucleic Acid; experiment: Binding affinity to 5'-AGAAAATAC-3' sequence of Escherichia coli 158-mer duplex pBR322 fragment after 60 mins by DNase I footprinting
[28] = test system: Nucleic Acid; experiment: Binding affinity to 11-mer duplex 4A-4T DNA at 0.2 to 7 uM after 60 mins by circular dichroism spectroscopy
[29] = test system: Nucleic Acid; experiment: Binding affinity to 5'-AATAC-3' sequence of Escherichia coli 158-mer duplex pBR322 fragment after 60 mins by DNase I footprinting
[30] = test system: Nucleic Acid; experiment: Binding affinity to 5'-AGAAAATAC-3' sequence of Escherichia coli 158-mer duplex pBR322 fragment at 10 to 2000 nM after 60 mins by DNase I footprinting
[31] = test system: Nucleic Acid; experiment: Binding affinity to 5'-TTTCT-3' sequence of Escherichia coli 81-mer duplex pBR322 fragment after 60 mins by DNase I footprinting
[32] = test system: Nucleic Acid; experiment: Binding affinity to 5'-TTTCTCCT-3' sequence of Escherichia coli 135-mer duplex pBR322 fragment after 60 mins by DNase I footprinting
[33] = test system: Nucleic Acid; experiment: Binding affinity to 5'-TTTCTCCT-3' sequence of Escherichia coli 135-mer duplex pBR322 fragment at 50 to 2000 nM after 60 mins by DNase I footprinting
[34] = test system: Nucleic Acid; experiment: Binding affinity to 5'-AATAC-3' sequence of Escherichia coli 158-mer duplex pBR322 fragment at 10 to 2000 nM after 60 mins by DNase I footprinting

Cn1cc(NC(=O)c2cc(NC(=O)[C@@H](CCCCN)NC(=O)[C@H](CCCNC(=N)N)NC(=O)[C@@H]3CCCN3C(=O)[C@@H](N)Cc3cnc[nH]3)cn2C)cc1C(=O)Nc1cc(C(=O)Nc2cc(C(=O)N[C@@H](Cc3cnc[nH]3)C(=O)N3CCC[C@H]3C(=O)N[C@@H](CCCNC(=N)N)C(=O)N[C@@H](CCCCN)C(N)=O)n(C)c2)n(C)c1
Activity [1]: Active
Activity [2]: Active
Ka [3]: 3.8 ×10⁶ /M
Activity [4]: Active
Ka [5]: 3.2 ×10⁶ /M
Activity [6]: Active
Activity [7]: Active
Activity [8]: Active
Ka [9]: 3.7 ×10⁶ /M
Ka [10]: 6.7 ×10⁷ /M

Cn1cc(NC(=O)c2cc(NC(=O)[C@@H](CCCCN)NC(=O)[C@H](CCCNC(=N)N)NC(=O)[C@@H]3C[C@@H](O)CN3C(=O)[C@@H](N)Cc3cnc[nH]3)cn2C)cc1C(=O)Nc1cc(C(=O)N[C@@H](CCCCN)C(=O)N[C@@H](CCCNC(=N)N)C(N)=O)n(C)c1
Activity [2]: Active
Ka [11]: 3.8 ×10⁶ /M
Ka [12]: 2.2 ×10⁶ /M
Activity [13]: Active
Activity [14]: Active
Activity [15]: inactive
Activity [16]: Active
Activity [6]: Active
Activity [17]: Active
Ka [18]: 2.5 ×10⁶ /M
Activity [19]: Active
Ka [20]: 1.9 ×10⁶ /M
Ka [21]: 2.1 ×10⁶ /M
Activity [22]: Active
Activity [23]: Active
Activity [24]: Dose-dependent effect
Activity [25]: Active
Ka [26]: 2.7 ×10⁶ /M

Cn1cc(NC(=O)c2cc(NC(=O)[C@@H](CCCCN)NC(=O)[C@H](CCCNC(=N)N)NC(=O)[C@@H]3C[C@@H](O)CN3C(=O)[C@@H](N)Cc3cnc[nH]3)cn2C)cc1C(=O)Nc1cc(C(=O)Nc2cc(C(=O)N[C@@H](Cc3cnc[nH]3)C(=O)N3C[C@H](O)C[C@H]3C(=O)N[C@@H](CCCNC(=N)N)C(=O)N[C@@H](CCCCN)C(N)=O)n(C)c2)n(C)c1
Activity [2]: Active
Ka [27]: 3.4 ×10⁶ /M
Activity [16]: Active
Activity [6]: Active
Activity [28]: Active
Activity [17]: Active
Ka [29]: 2.5 ×10⁶ /M
Activity [19]: Active
Ka [21]: 1.4 ×10⁶ /M
Activity [30]: Active
Ka [31]: 2.5 ×10⁶ /M
Ka [32]: 3.4 ×10⁶ /M
Activity [33]: Active
Activity [34]: Active
